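Each compound was tested at five concentrations against cells in 96-well plates for 48 hours. GI50 is the concentration that inhibits growth by half.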 The source made the active and inactive calls. Rule as the data show it: active = GI50 up to about 1.1 µM and inactive = higher.
Columns and labels:
Experiment in all cases: inhibition of tumour cell growth, NCI panel, 48 h
SK-MEL-2 = tested on: SK-MEL-2
OVCAR-3 = tested on: OVCAR-3
HOP-62 = tested on: HOP-62
UACC-62 = tested on: UACC-62
NCI-H226 = tested on: NCI-H226
SK-MEL-28 = tested on: SK-MEL-28
RXF 393 = tested on: RXF 393
HCC 2998 = tested on: HCC 2998
UACC-257 = tested on: UACC-257
LOX IMVI = tested on: LOX IMVI
MDA-MB-435 = tested on: MDA-MB-435
UO-31 = tested on: UO-31
SF-268 = tested on: SF-268
CCRF-CEM = tested on: CCRF-CEM
NCI-H23 = tested on: NCI-H23
786-0 = tested on: 786-0
NCI-H460 = tested on: NCI-H460
HCT-116 = tested on: HCT-116
U-251 = tested on: U-251
TK-10 = tested on: TK-10
T47D = tested on: T47D
MDA-MB-231 = tested on: MDA-MB-231
SNB-19 = tested on: SNB-19
COLO 205 = tested on: COLO 205
DU-145 = tested on: DU-145
SR = tested on: SR
MOLT-4 = tested on: MOLT-4
SW-620 = tested on: SW-620
SK-OV-3 = tested on: SK-OV-3
HOP-92 = tested on: HOP-92
HCT-15 = tested on: HCT-15
SF-295 = tested on: SF-295
SNB-75 = tested on: SNB-75
PC-3 = tested on: PC-3
HT-29 = tested on: HT-29
MDA-N = tested on: MDA-N
EKVX = tested on: EKVX
IGROV-1 = tested on: IGROV-1
KM12 = tested on: KM12
K562 = tested on: K562
OVCAR-8 = tested on: OVCAR-8
OVCAR-4 = tested on: OVCAR-4
Hs-578T = tested on: Hs-578T
A549 = tested on: A549
NCI/ADR-RES = tested on: NCI/ADR-RES
SN12C = tested on: SN12C
ACHN = tested on: ACHN
Malme-3M = tested on: Malme-3M
M14 = tested on: M14
OVCAR-5 = tested on: OVCAR-5
SK-MEL-5 = tested on: SK-MEL-5
SF-539 = tested on: SF-539
NCI-H522 = tested on: NCI-H522
RPMI-8226 = tested on: RPMI-8226
MCF7 = tested on: MCF7
A498 = tested on: A498
CAKI-1 = tested on: CAKI-1

**Q.** With `C=CC1(c2ccc(-c3ccccc3)cc2)OCCO1` as the molecule, how does the GI50 (SK-MEL-2) read?
**A.** 16.6 µM (inactive)

**Q.** What about the GI50 (OVCAR-3) of the same molecule?
**A.** 83.4 µM (inactive)

**Q.** What about the GI50 (HOP-62) of the same molecule?
**A.** > 100 µM (inactive)

**Q.** And the GI50 (UACC-62)?
**A.** 26.1 µM (inactive)

**Q.** And the GI50 (NCI-H226)?
**A.** 22.9 µM (inactive)

**Q.** What about the GI50 (SK-MEL-28) of the same molecule?
**A.** > 100 µM (inactive)

**Q.** And the GI50 (RXF 393)?
**A.** 39.4 µM (inactive)

**Q.** And the GI50 (HCC 2998)?
**A.** 63.7 µM (inactive)

**Q.** What about the GI50 (UACC-257) of the same molecule?
**A.** 78.9 µM (inactive)

**Q.** What about the GI50 (LOX IMVI) of the same molecule?
**A.** 58.9 µM (inactive)

**Q.** What about the GI50 (MDA-MB-435) of the same molecule?
**A.** 61.2 µM (inactive)

**Q.** And the GI50 (UO-31)?
**A.** > 100 µM (inactive)

**Q.** What about the GI50 (SF-268) of the same molecule?
**A.** > 100 µM (inactive)

**Q.** And the GI50 (CCRF-CEM)?
**A.** 11.9 µM (inactive)

**Q.** What about the GI50 (NCI-H23) of the same molecule?
**A.** 34.7 µM (inactive)

**Q.** And the GI50 (786-0)?
**A.** 46.8 µM (inactive)

**Q.** And the GI50 (NCI-H460)?
**A.** > 100 µM (inactive)

**Q.** And the GI50 (HCT-116)?
**A.** 47.5 µM (inactive)

**Q.** And the GI50 (U-251)?
**A.** 54.8 µM (inactive)

**Q.** And the GI50 (TK-10)?
**A.** 89.1 µM (inactive)

**Q.** What about the GI50 (T47D) of the same molecule?
**A.** 51.2 µM (inactive)

**Q.** What about the GI50 (MDA-MB-231) of the same molecule?
**A.** > 100 µM (inactive)

**Q.** And the GI50 (SNB-19)?
**A.** 25.8 µM (inactive)

**Q.** What about the GI50 (COLO 205) of the same molecule?
**A.** 31.3 µM (inactive)

**Q.** What about the GI50 (DU-145) of the same molecule?
**A.** > 100 µM (inactive)

**Q.** And the GI50 (SR)?
**A.** 45.9 µM (inactive)

**Q.** And the GI50 (MOLT-4)?
**A.** 40.6 µM (inactive)

**Q.** What about the GI50 (SW-620) of the same molecule?
**A.** 31.2 µM (inactive)

**Q.** What about the GI50 (SK-OV-3) of the same molecule?
**A.** > 100 µM (inactive)

**Q.** What about the GI50 (HOP-92) of the same molecule?
**A.** 34.8 µM (inactive)

**Q.** What about the GI50 (HCT-15) of the same molecule?
**A.** 29.5 µM

**Q.** And the GI50 (SF-295)?
**A.** > 100 µM (inactive)

**Q.** What about the GI50 (SNB-75) of the same molecule?
**A.** 39.1 µM (inactive)

**Q.** What about the GI50 (PC-3) of the same molecule?
**A.** 35 µM (inactive)

**Q.** And the GI50 (HT-29)?
**A.** 28.2 µM (inactive)

**Q.** And the GI50 (MDA-N)?
**A.** 50.9 µM (inactive)

**Q.** And the GI50 (EKVX)?
**A.** 49.2 µM (inactive)

**Q.** What about the GI50 (IGROV-1) of the same molecule?
**A.** > 100 µM (inactive)

**Q.** What about the GI50 (KM12) of the same molecule?
**A.** 41.2 µM (inactive)

**Q.** What about the GI50 (K562) of the same molecule?
**A.** 22.9 µM (inactive)

**Q.** And the GI50 (OVCAR-8)?
**A.** > 100 µM (inactive)

**Q.** And the GI50 (OVCAR-4)?
**A.** 79.4 µM (inactive)

**Q.** And the GI50 (Hs-578T)?
**A.** 23.4 µM (inactive)

**Q.** And the GI50 (A549)?
**A.** 73.8 µM (inactive)

**Q.** And the GI50 (NCI/ADR-RES)?
**A.** 65.6 µM (inactive)

**Q.** And the GI50 (SN12C)?
**A.** 76.2 µM (inactive)

**Q.** What about the GI50 (ACHN) of the same molecule?
**A.** > 100 µM (inactive)

**Q.** And the GI50 (Malme-3M)?
**A.** 42.8 µM (inactive)

**Q.** What about the GI50 (M14) of the same molecule?
**A.** 59.7 µM (inactive)

**Q.** And the GI50 (OVCAR-5)?
**A.** 64.4 µM (inactive)

**Q.** What about the GI50 (SK-MEL-5) of the same molecule?
**A.** 35 µM (inactive)

**Q.** And the GI50 (SF-539)?
**A.** > 100 µM (inactive)

**Q.** What about the GI50 (NCI-H522) of the same molecule?
**A.** 42 µM (inactive)

**Q.** What about the GI50 (RPMI-8226) of the same molecule?
**A.** > 100 µM (inactive)

**Q.** What about the GI50 (MCF7) of the same molecule?
**A.** 54.6 µM (inactive)

**Q.** `CCCCCCCCCCCCOCC1(COCCCCCCCCCCCC)COC(c2ccc(N)cc2)OC1` was tested. Which GI50 (SK-MEL-2) did it give?
**A.** > 100 µM (inactive)

**Q.** And the GI50 (OVCAR-3)?
**A.** > 100 µM (inactive)

**Q.** What about the GI50 (A498) of the same molecule?
**A.** > 100 µM (inactive)

**Q.** What about the GI50 (HOP-62) of the same molecule?
**A.** > 100 µM (inactive)

**Q.** And the GI50 (UACC-62)?
**A.** > 100 µM (inactive)

**Q.** What about the GI50 (NCI-H226) of the same molecule?
**A.** > 100 µM (inactive)

**Q.** And the GI50 (SK-MEL-28)?
**A.** > 100 µM (inactive)

**Q.** What about the GI50 (HCC 2998) of the same molecule?
**A.** > 100 µM (inactive)

**Q.** What about the GI50 (UACC-257) of the same molecule?
**A.** > 100 µM (inactive)

**Q.** What about the GI50 (LOX IMVI) of the same molecule?
**A.** > 100 µM (inactive)

**Q.** What about the GI50 (MDA-MB-435) of the same molecule?
**A.** > 100 µM (inactive)

**Q.** What about the GI50 (UO-31) of the same molecule?
**A.** > 100 µM (inactive)

**Q.** What about the GI50 (SF-268) of the same molecule?
**A.** > 100 µM (inactive)

**Q.** What about the GI50 (NCI-H23) of the same molecule?
**A.** > 100 µM (inactive)

**Q.** What about the GI50 (786-0) of the same molecule?
**A.** > 100 µM (inactive)

**Q.** And the GI50 (NCI-H460)?
**A.** > 10 µM (inactive)

**Q.** And the GI50 (HCT-116)?
**A.** > 100 µM (inactive)

**Q.** And the GI50 (U-251)?
**A.** > 100 µM (inactive)

**Q.** What about the GI50 (TK-10) of the same molecule?
**A.** > 100 µM (inactive)

**Q.** What about the GI50 (T47D) of the same molecule?
**A.** > 100 µM (inactive)

**Q.** And the GI50 (MDA-MB-231)?
**A.** > 100 µM (inactive)

**Q.** And the GI50 (SNB-19)?
**A.** > 100 µM (inactive)

**Q.** What about the GI50 (DU-145) of the same molecule?
**A.** > 100 µM (inactive)

**Q.** What about the GI50 (SR) of the same molecule?
**A.** > 100 µM (inactive)

**Q.** What about the GI50 (MOLT-4) of the same molecule?
**A.** > 100 µM (inactive)

**Q.** And the GI50 (SW-620)?
**A.** > 100 µM (inactive)

**Q.** And the GI50 (SK-OV-3)?
**A.** > 100 µM (inactive)

**Q.** And the GI50 (HCT-15)?
**A.** > 100 µM

**Q.** What about the GI50 (SF-295) of the same molecule?
**A.** > 100 µM (inactive)

**Q.** What about the GI50 (SNB-75) of the same molecule?
**A.** > 100 µM (inactive)

**Q.** And the GI50 (PC-3)?
**A.** > 100 µM (inactive)

**Q.** And the GI50 (HT-29)?
**A.** > 100 µM (inactive)

**Q.** And the GI50 (MDA-N)?
**A.** > 100 µM (inactive)

**Q.** And the GI50 (EKVX)?
**A.** > 100 µM (inactive)

**Q.** What about the GI50 (CAKI-1) of the same molecule?
**A.** > 100 µM (inactive)

**Q.** What about the GI50 (IGROV-1) of the same molecule?
**A.** > 100 µM (inactive)

**Q.** What about the GI50 (KM12) of the same molecule?
**A.** > 100 µM (inactive)

**Q.** And the GI50 (K562)?
**A.** > 100 µM (inactive)

**Q.** What about the GI50 (OVCAR-8) of the same molecule?
**A.** > 100 µM (inactive)

**Q.** And the GI50 (OVCAR-4)?
**A.** > 100 µM (inactive)

**Q.** And the GI50 (Hs-578T)?
**A.** > 100 µM (inactive)

**Q.** And the GI50 (A549)?
**A.** > 100 µM (inactive)

**Q.** And the GI50 (NCI/ADR-RES)?
**A.** > 100 µM (inactive)

**Q.** And the GI50 (SN12C)?
**A.** > 100 µM (inactive)

**Q.** What about the GI50 (ACHN) of the same molecule?
**A.** > 100 µM (inactive)

**Q.** And the GI50 (Malme-3M)?
**A.** > 100 µM (inactive)

**Q.** What about the GI50 (M14) of the same molecule?
**A.** > 100 µM (inactive)

**Q.** What about the GI50 (OVCAR-5) of the same molecule?
**A.** > 100 µM (inactive)

**Q.** And the GI50 (SK-MEL-5)?
**A.** > 100 µM (inactive)

**Q.** And the GI50 (SF-539)?
**A.** > 100 µM (inactive)

**Q.** And the GI50 (RPMI-8226)?
**A.** > 100 µM (inactive)

**Q.** And the GI50 (MCF7)?
**A.** > 100 µM (inactive)

From ChEMBL document CHEMBL1201862, “PubChem BioAssay data set” (2004)
